This note sets out measurements from US8163793B2, “Proline derivatives” (Hoffman-La Roche Inc., priority 2009, dated 2012).

For test [1], the target named is Cathepsin S (UniProt P25774). The experiment in a line: Cathepsin enzyme inhibition assay (fluorogenic peptide substrate Z-Val-Val-Arg-AMC), Cathepsin S. Format: biochemical, human and mouse. The following applies: enzyme 1 nM, substrate 20 μM, pH 6.5; read-out: CatS IC50. Put shortly:
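Human or mouse cathepsin S (1 nM) was run in 100 mM potassium phosphate pH 6.5 with 5 mM EDTA, 0.001% Triton X-100 and 5 mM DTT. The rise in AMC fluorescence from cleavage was measured, and IC50 values were calculated by standard methods and expressed in μM.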

Test [2] has as its target Cat L (UniProt P07711). The experiment in a line: Cathepsin enzyme inhibition assay (fluorogenic peptide substrate Z-Val-Val-Arg-AMC), Cathepsin L. Format: biochemical, human and mouse. The following applies: enzyme 1 nM, substrate 20 μM, pH 6.5; read-out: CatL IC50. A digest of the protocol: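 Cathepsin L at 1 nM was mixed with compound, then started with 20 μM Z-Val-Val-Arg-AMC in pH 6.5 potassium phosphate with EDTA, Triton X-100 and 5 mM DTT. AMC fluorescence (ex 360/em 465 nm) was followed over 20 min. IC50 is given in μM.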

Structures are written as SMILES. A value given as a limit tells only on which side of the number the result lay.

Take `Cc1cc(N2C[C@H](S(=O)(=O)c3ccc(-n4cccn4)cc3C(F)(F)F)C[C@H]2C(=O)NC2(C#N)CC2)n(C2CCC2)n1` [Example 416, (2S,4R)-1-(2-Cyclobutyl-5-methyl-2H-pyrazol-3-yl)-4-(4-pyrazol-1-yl-2-trifluoromethyl-benzenesulfonyl)-pyrrolidine-2-carboxylic acid (1-cyano-cyclopropyl)-amide]: the IC50 in test [1] worked out at 0.338 nM; in test [2], 21400 nM.
Taken in the same sequence, the figures for `N#CC1(NC(=O)[C@@H]2C[C@@H](S(=O)(=O)c3ccccc3Cl)CN2C(=O)[C@H](N)c2ccc(Cl)cc2)CC1` [Example 417, (2S,4R)-1-[(R)-2-Amino-2-(4-chloro-phenyl)-acetyl]-4-(2-chloro-benzenesulfonyl)-pyrrolidine-2-carboxylic acid (1-cyano-cyclopropyl)-amide] were 2.45 nM and 55.5 nM.
Taken in the same sequence, the figures for `Cc1cc(N2C[C@H](S(=O)(=O)c3ccccc3Cl)C[C@H]2C(=O)NC2(C#N)CC2)n(Cc2ccc(Cl)cc2)n1` [Example 418, (2S,4R)-4-(2-Chloro-benzenesulfonyl)-1-[2-(4-chloro-benzyl)-5-methyl-2H-pyrazol-3-yl]-pyrrolidine-2-carboxylic acid (1-cyano-cyclopropyl)-amide] were 4 nM and 1620 nM.
For `Cc1cc(N2C[C@H](S(=O)(=O)c3ccc(-c4ccncn4)cc3C(F)(F)F)C[C@H]2C(=O)NC2(C#N)CC2)n(C2CCC2)n1` [Example 419, (2S,4R)-1-(2-Cyclobutyl-5-methyl-2H-pyrazol-3-yl)-4-(4-pyrimidin-4-yl-2-trifluoromethyl-benzenesulfonyl)-pyrrolidine-2-carboxylic acid (1-cyano-cyclopropyl)-amide], the results for the IC50 in test [1] and in test [2] were 0.415 nM and 16900 nM, respectively.
Taken in the same sequence, the figures for `Cc1cc(N2C[C@H](S(=O)(=O)c3ccc(-c4ccnn4C)cc3C(F)(F)F)C[C@H]2C(=O)NC2(C#N)CC2)n(C2CCC2)n1` [Example 420, (2S,4R)—N-(1-cyanocyclopropyl)-1-(1-cyclobutyl-3-methyl-1H-pyrazol-5-yl)-4-(4-(1-methyl-1H-pyrazol-5-yl)-2-(trifluoromethyl)phenylsulfonyl)pyrrolidine-2-carboxamide] were 0.395 nM and 14000 nM.
Regarding `N#CC1(NC(=O)[C@H]2CC(S(=O)(=O)c3ccccc3Cl)CN2C(=O)C(NCC(F)(F)F)c2ccc(Cl)cc2)CC1` (stereo partly drawn) [Example 421, (R)-4-(2-Chloro-benzenesulfonyl)-1-[2-(4-chloro-phenyl)-2-(2,2,2-trifluoro-ethylamino)-acetyl]-pyrrolidine-2-carboxylic acid (1-cyano-cyclopropyl)-amide], the IC50 in test [1] was determined as 11.5 nM; in test [2], 4950 nM.
For the compound `N#CC1(NC(=O)[C@@H]2C[C@@H](S(=O)(=O)c3ccccc3Cl)CN2C(=O)Cn2ccc(C(F)(F)F)n2)CC1` [Example 422, (2S,4R)-4-(2-Chloro-benzenesulfonyl)-1-[2-(3-trifluoromethyl-pyrazol-1-yl)-acetyl]-pyrrolidine-2-carboxylic acid (1-cyano-cyclopropyl)-amide], the IC50 in test [1] was determined as 1.85 nM; in test [2], 4360 nM.
Regarding `N#CC1(NC(=O)[C@@H]2C[C@@H](S(=O)(=O)CC3CC3)CN2C(=O)C2(C(F)(F)F)CC2)CC1` [Example 423, (2S,4R)-4-Cyclopropylmethanesulfonyl-1-(1-trifluoromethyl-cyclopropanecarbonyl)-pyrrolidine-2-carboxylic acid (1-cyano-cyclopropyl)-amide], the concentration for half-maximal inhibition (IC50) in test [1] was 1470 nM; in test [2] it was not below 25000 nM.
On to `N#CC1(NC(=O)[C@@H]2C[C@@H](S(=O)(=O)CC3CC3)CN2C(=O)C2(c3ccc(Cl)cc3)CC2)CC1` [Example 424, (2S,4R)-1-[1-(4-Chloro-phenyl)-cyclopropanecarbonyl]-4-cyclopropylmethanesulfonyl-pyrrolidine-2-carboxylic acid (1-cyano-cyclopropyl)-amide], for which the half-maximal inhibitory concentration (IC50) in test [1] was 410 nM; in test [2] it was not below 25000 nM.
For `N#CC1(NC(=O)[C@@H]2C[C@@H](S(=O)(=O)c3ccccc3Cl)CN2C(=O)C2(c3ccc(F)cc3)CC2)CC1` [Example 425, (2S,4R)-4-(2-chlorophenylsulfonyl)-N-(1-cyanocyclopropyl)-1-(1-(4-fluorophenyl)-cyclopropanecarbonyl)pyrrolidine-2-carboxamide] the same measures were 0.26 nM and 335 nM.
For `N#CC1(NC(=O)[C@@H]2C[C@@H](S(=O)(=O)c3ccccc3Cl)CN2C(=O)C2(c3ccc(Br)cc3)CC2)CC1` [Example 426, (2S,4R)-1-(1-(4-bromophenyl)cyclopropanecarbonyl)-4-(2-chlorophenylsulfonyl)-N-(1-cyanocyclopropyl)pyrrolidine-2-carboxamide] the same measures were 0.47 nM and 45 nM.
Taken in the same sequence, the figures for `N#CC1(NC(=O)[C@@H]2C[C@@H](S(=O)(=O)c3ccccc3Cl)CN2C(=O)C2(c3ccc(C(F)(F)F)cc3)CC2)CC1` [Example 427, (2S,4R)-4-(2-chlorophenylsulfonyl)-N-(1-cyanocyclopropyl)-1-(1-(4-(trifluoromethyl)phenyl)cyclopropanecarbonyl)pyrrolidine-2-carboxamide] were 0.51 nM and 95 nM.
For `N#CC1(NC(=O)[C@@H]2C[C@@H](S(=O)(=O)c3ccccc3Cl)CN2C(=O)C2(c3cccc(Cl)c3)CC2)CC1` [Example 428, (2S,4R)-1-(1-(3-chlorophenyl)cyclopropanecarbonyl)-4-(2-chlorophenylsulfonyl)-N-(1-cyanocyclopropyl)pyrrolidine-2-carboxamide], the IC50 in test [1] was 0.415 nM; in test [2], 335 nM.
Taken in the same sequence, the figures for `N#CC1(NC(=O)[C@@H]2C[C@@H](S(=O)(=O)c3ccccc3Cl)CN2C(=O)C2(c3cccc(C(F)(F)F)c3)CC2)CC1` [Example 429, (2S,4R)-4-(2-chlorophenylsulfonyl)-N-(1-cyanocyclopropyl)-1-(1-(3-(trifluoromethyl)phenyl)cyclopropanecarbonyl)pyrrolidine-2-carboxamide] were 0.365 nM and 460 nM.
`CC(C(=O)N1C[C@H](S(=O)(=O)c2ccccc2Cl)C[C@H]1C(=O)NC1(C#N)CC1)c1ccc(Cl)cc1` (stereo partly drawn) [Example 430, (2S,4R)-1-(2-(4-chlorophenyl)propanoyl)-4-(2-chlorophenylsulfonyl)-N-(1-cyanocyclopropyl)pyrrolidine-2-carboxamide]: the figures for the 50% inhibitory concentration (IC50) in test [1] and in test [2] were 0.82 nM and 2590 nM, respectively.
With `CC(C(=O)N1C[C@H](S(=O)(=O)c2ccccc2Cl)C[C@H]1C(=O)NC1(C#N)CC1)c1ccc(Cl)cc1` (stereo partly shown) [Example 431], the concentration for half-maximal inhibition (IC50) stood at 0.875 nM in test [1] and 130 nM in test [2].
For `CC(C)C(C(=O)N1C[C@H](S(=O)(=O)c2ccccc2Cl)C[C@H]1C(=O)NC1(C#N)CC1)c1ccc(Cl)cc1` (stereo partly drawn) [Example 432, (2S,4R)-1-(2-(4-chlorophenyl)-3-methylbutanoyl)-4-(2-chlorophenylsulfonyl)-N-(1-cyanocyclopropyl)pyrrolidine-2-carboxamide] the same measures were 0.595 nM and 115 nM.

In general, IC50 refers to the point on the concentration scale where inhibition reaches its midpoint.
